Measurements published in US20220002806A1, “BIOMARKER” (ERBER AKTIENGESELLSCHAFT, priority 2018, published 2022).

Legend:
[1] = Zinedine et al. 2007; cited from earlier work
[2] = tested on: miR-7; details: ovariectomized pigs; intraperitoneal injection of 112.5 mg ZEN per day; He et al. 2018; cited from earlier work
[3] = tested on: miRNAs in serum; assay: Targeted qPCR-based miRNA analysis in blood serum of ZEN-exposed piglets; assay type: in vivo, pig
Description: (§1) Weaned female piglets (sow: Landrace×Large White, boar: Pietrain; 30+/−2 days old) were obtained from a local producer and individually tagged. Piglets were housed in slatted floor pens under controlled environmental conditions. After an acclimatization period of seven days, twenty-four female piglets were selected based on both body weight and vulva size, and allocated to one of four groups (6 animals/group). Piglets received either blank feed (negative control; Ctrl) or feed contaminated with ZEN in three increasing concentrations (ZEN low: 0.17 mg/kg diet; ZEN medium: 1.5 mg/kg diet; ZEN high: 4.6 mg/kg diet). During the 28-day experimental period, each treatment group was given free access to water and the assigned diet. The pigs were observed daily and weighed weekly.
(§2) Blood was collected weekly (d 0, 6, 14, 21 and 28) from individual animals by punctuation of the vena cava cranialis (Primavette® EDTA, Kabe Labortechnik GmbH, Nümbrecht-Elsenroth, Deutschland). After centrifugation (1500×g, 20 min), serum samples were stored at −80° C. for later analysis. Vulva length and width were measured at regular intervals with a caliper to determine the dietary ZEN effects. The vulva area was calculated as vulva length×vulva width, as previously reported (Jiang et al. 2011. Journal of animal science, 89, 3008-3015). Eight measurements were done per piglet over the experimental period.
miRNA extraction and qPCR analysis: Unlike the small-RNA-Seq analysis, all the animals from the feeding trial were used for investigations of the miRNA profile in the serum (6 per group; total of 24 animals). RNA was isolated from the serum samples using the miRNeasy Mini Kit (Qiagen, Germany). […] To calculate the cycle of quantification values (Cq-values), the second derivative method was used, as known by a person skilled in the art. Cq-values were normalized to the mean Cq-value in each sample (global mean normalization) by subtracting the individual miRNA Cq-value from the Cq average calculated for that sample. […]

[4] = target: T1, pregnane X receptor (Homo sapiens, UniProt O75469); details: in vitro; Ayed-Boussema et al. 2011; cited from earlier work
T1 sequence (O75469 1-434): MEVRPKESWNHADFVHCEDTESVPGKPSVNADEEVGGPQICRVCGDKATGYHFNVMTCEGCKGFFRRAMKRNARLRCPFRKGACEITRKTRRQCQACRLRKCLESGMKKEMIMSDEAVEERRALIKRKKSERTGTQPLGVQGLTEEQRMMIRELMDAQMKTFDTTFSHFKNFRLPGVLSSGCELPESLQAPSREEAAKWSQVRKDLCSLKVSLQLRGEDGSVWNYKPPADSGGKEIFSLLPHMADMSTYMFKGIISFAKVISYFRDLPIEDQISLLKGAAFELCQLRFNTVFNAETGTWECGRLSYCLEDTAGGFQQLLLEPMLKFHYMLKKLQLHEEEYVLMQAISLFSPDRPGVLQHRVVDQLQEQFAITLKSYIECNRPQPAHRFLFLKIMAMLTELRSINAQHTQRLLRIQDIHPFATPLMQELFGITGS

[5] = target: estrogen receptors β (Homo sapiens, UniProt Q92731); details: Zinedine et al. 2007; cited from earlier work
Chain of estrogen receptors β (Q92731 whole entry): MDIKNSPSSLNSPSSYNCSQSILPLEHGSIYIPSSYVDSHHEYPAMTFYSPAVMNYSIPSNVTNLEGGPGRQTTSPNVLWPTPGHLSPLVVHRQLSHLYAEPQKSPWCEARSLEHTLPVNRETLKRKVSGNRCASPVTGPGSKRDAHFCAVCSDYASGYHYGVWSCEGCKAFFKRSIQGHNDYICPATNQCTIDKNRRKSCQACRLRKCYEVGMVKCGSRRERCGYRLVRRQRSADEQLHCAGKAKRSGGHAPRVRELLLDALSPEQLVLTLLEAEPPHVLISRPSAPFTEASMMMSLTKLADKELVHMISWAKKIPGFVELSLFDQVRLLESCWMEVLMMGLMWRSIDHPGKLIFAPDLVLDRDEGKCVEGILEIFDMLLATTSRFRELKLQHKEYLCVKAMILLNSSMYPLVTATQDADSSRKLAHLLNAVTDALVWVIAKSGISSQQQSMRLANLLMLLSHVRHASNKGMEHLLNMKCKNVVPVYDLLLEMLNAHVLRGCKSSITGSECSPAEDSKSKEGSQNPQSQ

[6] = target: estrogen receptors α (Homo sapiens, UniProt P03372); details: Zinedine et al. 2007; cited from earlier work
Chain of estrogen receptors α (P03372 whole entry): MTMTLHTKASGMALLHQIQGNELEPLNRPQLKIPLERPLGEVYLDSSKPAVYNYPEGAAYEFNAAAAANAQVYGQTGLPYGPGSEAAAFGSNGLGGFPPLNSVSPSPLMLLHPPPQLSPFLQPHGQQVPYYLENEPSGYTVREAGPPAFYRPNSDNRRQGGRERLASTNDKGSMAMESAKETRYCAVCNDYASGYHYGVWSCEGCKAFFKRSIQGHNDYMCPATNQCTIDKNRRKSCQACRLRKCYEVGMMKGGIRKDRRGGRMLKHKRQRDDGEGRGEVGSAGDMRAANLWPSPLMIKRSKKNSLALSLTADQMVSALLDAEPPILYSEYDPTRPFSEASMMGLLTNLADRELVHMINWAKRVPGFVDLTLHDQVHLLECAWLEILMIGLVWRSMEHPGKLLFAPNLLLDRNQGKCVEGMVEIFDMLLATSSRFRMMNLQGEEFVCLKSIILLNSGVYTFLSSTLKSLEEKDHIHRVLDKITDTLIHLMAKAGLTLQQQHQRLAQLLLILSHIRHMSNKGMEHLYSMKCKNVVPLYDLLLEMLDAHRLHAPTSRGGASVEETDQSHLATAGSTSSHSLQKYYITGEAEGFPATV

[7] = tested on: weaned female piglets; assay: Feeding trial in weaned female piglets: vulva surface, reproductive tract weight, body weight; assay type: in vivo, pig; details: for reproductive tract weight relative to body weight, average (±SD): [reproductive tract (in grams)/body weight (in kg)]*100; for increase of vulva surface compared to the control group: d 26
Description: as §1
Diets were manufactured at BIOMIN AN (Herzogenburg, Austria), and formulated according to the energy and amino acid requirements for piglets. Four different batches were prepared, one control batch and three batches artificially contaminated with ZEN (Fermentek LTD, Israel; purity >99.2%). Homogenous distribution of ZEN within the diets was achieved by preparation of maltodextrin premixes, which contained appropriate amounts of ZEN and were added to the basal feed at an inclusion rate of 0.9% (w/w). Final ZEN concentrations were verified by HPLC-MS (Romer Labs GmbH) and confirmed.
as §2
After 28 days of dietary exposure to the experimental diets, pigs were anesthetized by intramuscular injection of ketamine (0.1 mL/kg body weight (b.w.) Narketan®, Vétoquinol GmbH, Ravensburg, Germany) and azaperone (0.03 mL/kg b.w.; Stresnil®, Janssen-Cilag, Neuss, Germany). Subsequently, animals were euthanized by intracardial injection of T61® (Intervet, UnterschleiBheim, Germany; 0.1 ml/kg b.w.). The whole reproductive tract was collected, weighed and examined for any clinical signs. Small pieces of the corpus uteri and the mid-jejunum were dissected, placed into 1 mL of RNAlater, and stored overnight at 4° C. The next day, all the tissue samples were transferred to −80° C. for long-term storage, and until processed for transcriptomics analysis.

[8] = Ctrl vs ZEN high group (4.6 mg/kg diet), day 6 or day 28, unadjusted p-value ≤0.1

C[C@H]1CCCC(=O)CCC/C=C/c2cc(O)cc(O)c2C(=O)O1 [ZEN, (2E,11S)-15,17-dihydroxy-11-methyl-12-oxabicyclo[12.4.0]octadeca-1(18),2,14,16-tetraene-7,13-dione]
acute toxicity [1]: low
expression of miR-7 in pituitary tissue [2]: increase
serum levels of ssc-miR-1, ssc-miR-142-3p, ssc-miR-181c and ssc-miR-182 [3, 8]: down-regulated
serum levels of ssc-miR-140-3p, ssc-miR-455-3p, ssc-miR-455-5p and ssc-miR-542-3p [3, 8]: Up-regulated
log 2-transformed fold changes of serum ssc-miR-129a, ssc-miR-135, ssc-miR-206, ssc-miR-432-5p, ssc-miR-493-3p and ssc-miR-503 ([3]; Ctrl vs ZEN high group, log 2 fold changes ≤−0.8 or ≥0.8): considerable effect
action on pregnane X receptor [4]: activates
agonist action on estrogen receptor β [5]: partial agonist
agonist action on estrogen receptor α [6]: full
days of exposure after which vulva surface was significantly increased ([7]; ZEN high (4.6 mg/kg diet)): six
reproductive tract weight relative to body weight, average (±SD) ([7]; ZEN high (4.6 mg/kg diet), 28 days): 353.4±110.6
increase of vulva surface compared to the control group ([7]; ZEN high (4.6 mg/kg diet)): +230%
reproductive tract weight relative to body weight, average (±SD) ([7]; ZEN low (0.17 mg/kg diet), 28 days): 55.8±17.2
days of exposure after which vulva surface was significantly increased ([7]; ZEN medium (1.5 mg/kg diet)): thirteen
reproductive tract weight relative to body weight, average (±SD) ([7]; ZEN medium (1.5 mg/kg diet), 28 days): 121.4±43.4
increase of vulva surface compared to the control group ([7]; ZEN medium (1.5 mg/kg diet)): +90%
effect on the body weight of the piglets ([7]; independent of the concentration (0.17-4.6 mg/kg diet), 28 days): no effect
